# Article PMC5433425 (PeerJ, 2017)
# Values joined by “and” are separate entries in the source; they are usually repeats but may differ in a detail not shown here. Equal entries are not always repeated.
# What was measured:
# [1] = system: Mycobacterium tuberculosis H37Rv ATCC27294T; assay: MIC, antibacterial specificity; type: cell-based
# [2] = system: Mycobacterium avium 104; assay: MIC, antibacterial specificity; type: cell-based
# [3] = system: Acinetobacter baumannii ATCC19606T; assay: MIC, antibacterial specificity; type: cell-based
# [4] = system: E. coli AG100A; assay: EtBr efflux by real-time fluorometry; conditions: 20 µM, without glucose
# Description: Control tubes with only cells and cells with and without 0.4% glucose were included. The fluorescence was measured in a Rotor-Gene 3000 and the data was acquired every 30 s for 30 min at 37 °C. The efflux activity was quantified by comparing the fluorescence data obtained under conditions that promote efflux (presence of glucose and absence of efflux inhibitor) with the data from the control in which the bacteria are under conditions of no efflux (presence of an inhibitor and no energy source).
# [5] = system: human monocyte-derived macrophages; assay: Cytotoxicity, LDH release; type: cell-based; conditions: 5 µM; 3 days
# Description: (§1) The blood was collected from healthy donors and the peripheral blood mononuclear cells were isolated by Ficoll-Paque Plus (GE Healthcare, Freiburg, Germany) density gradient centrifugation as previously described ([Machado et al., 2016]). […] Fresh medium was added at day 4 post isolation. The effect of the compounds on human monocyte-derived macrophages was evaluated using the AlamarBlue method (Molecular Probes, Life Technologies) ([O’Brien et al., 2000]), and by measuring the release of the lactate dehydrogenase (LDH) into the culture supernatants using the Pierce LDH Cytotoxicity Assay (ThermoFisher Scientific, Waltham, MA, USA) ([Chan, Moriwaki & Rosa, 2013]) according to the manufacturer’s instructions. Briefly, 5 × 10^4 cells were seeded in 96-well microplates treated with the compounds, and incubated at 37 °C with 5% CO2. After 72 h of treatment, the cell viability was assessed. For the AlamarBlue method, the dye was added to each well to a final concentration of 10% and incubated overnight at 37 °C and 5% CO2. The fluorescence was measured with a 540/35 excitation filter and a 590/20 emission filter in a Synergy HT multi-mode microplate reader. The release of LDH from damaged cells into culture supernatants, as an indicator of cytotoxicity, was measured in serum-free medium. Here the amount of enzyme activity correlates to the number of damaged cells. The specific lysis was calculated as follows: (treated cells—spontaneous LDH release)/ (maximum LDH release—spontaneous LDH release) ×100.
# [6] = system: human monocyte-derived macrophages; assay: Cytotoxicity, AlamarBlue method; type: cell-based; conditions: for AlamarBlue fluorescence 530/25,590/35 (raw well reading): 72 h
# Description: as §1
# [7] = system: panel of selected bacterial species; assay: Spectrum of activity, average MIC per bacterial group; type: cell-based
# [8] = system: Enterobacter aerogenes ATCC13048; assay: MIC, antibacterial specificity; type: cell-based
# [9] = system: E. coli AG100; assay: Intracellular ATP levels determination; type: cell-based, Escherichia coli
# Description: The ATP levels were measured using the ATP Determination Kit (Invitrogen, Life Technologies, Paisley, UK) according to the manufacturer’s instructions. […] A drug-free control was included in the assay to monitor the normal growth of the strain. Aliquots of bacteria were collected at 0, 1, 2, 3, 4, 5, 6, and 24 h of incubation at 37 °C, with shaking, inactivated by heating and immediately deep frozen. […] CPZ and PAβN were included for comparison.
# [10] = three days of exposure, AlamarBlue
structure (smiles),measurement,setting,value
"CCCOc1ccc(-c2cc(OCCN3CCNCC3)c3ccccc3n2)cc1 [PQQ4R, 4-(2-(piperazin-1-yl)ethoxy)-2-(4-propoxyphenyl) quinolone]",MIC,[1],32 µg/mL
same,MIC,[2],32 µg/mL
same,MIC,[3],128 µg/mL
same,EtBr fluorescence (Channel Cycling A.530/585hp),[4]; cycle 1,5.807
same,EtBr fluorescence (Channel Cycling A.530/585hp),[4]; cycle 2,5.662
same,EtBr fluorescence (Channel Cycling A.530/585hp),[4]; cycle 3,5.478
same,EtBr fluorescence (Channel Cycling A.530/585hp),[4]; cycle 4,5.356
same,EtBr fluorescence (Channel Cycling A.530/585hp),[4]; cycle 5,5.183
same,EtBr fluorescence (Channel Cycling A.530/585hp),[4]; cycle 6,5.1485
same,EtBr fluorescence (Channel Cycling A.530/585hp),[4]; cycle 7,5.025
same,EtBr fluorescence (Channel Cycling A.530/585hp),[4]; cycle 8,4.924
same,EtBr fluorescence (Channel Cycling A.530/585hp),[4]; cycle 9,4.937
same,EtBr fluorescence (Channel Cycling A.530/585hp),[4]; cycle 10,4.811
same,EtBr fluorescence (Channel Cycling A.530/585hp),[4]; cycle 11,4.773
same,EtBr fluorescence (Channel Cycling A.530/585hp),[4]; cycle 12,4.602
same,EtBr fluorescence (Channel Cycling A.530/585hp),[4]; cycle 13,4.634
same,EtBr fluorescence (Channel Cycling A.530/585hp),[4]; cycle 14,4.745
same,EtBr fluorescence (Channel Cycling A.530/585hp),[4]; cycle 15,4.684
same,EtBr fluorescence (Channel Cycling A.530/585hp),[4]; cycle 16,4.629
same,EtBr fluorescence (Channel Cycling A.530/585hp),[4]; cycle 17,4.631
same,EtBr fluorescence (Channel Cycling A.530/585hp),[4]; cycle 18,4.599
same,EtBr fluorescence (Channel Cycling A.530/585hp),[4]; cycle 19,4.579
same,EtBr fluorescence (Channel Cycling A.530/585hp),[4]; cycle 20,4.522
same,EtBr fluorescence (Channel Cycling A.530/585hp),[4]; cycle 21,4.504
same,EtBr fluorescence (Channel Cycling A.530/585hp),[4]; cycle 22,4.567
same,EtBr fluorescence (Channel Cycling A.530/585hp),[4]; cycle 23,4.591
same,EtBr fluorescence (Channel Cycling A.530/585hp),[4]; cycle 24,4.544
same,EtBr fluorescence (Channel Cycling A.530/585hp),[4]; cycle 25,4.652
same,EtBr fluorescence (Channel Cycling A.530/585hp),[4]; cycle 26,4.627
same,EtBr fluorescence (Channel Cycling A.530/585hp),[4]; cycle 27,4.498
same,EtBr fluorescence (Channel Cycling A.530/585hp),[4]; cycle 28,4.577
same,EtBr fluorescence (Channel Cycling A.530/585hp),[4]; cycle 29,4.648
same,EtBr fluorescence (Channel Cycling A.530/585hp),[4]; cycle 30,4.639
same,EtBr fluorescence (Channel Cycling A.530/585hp),[4]; cycle 31,4.704
same,EtBr fluorescence (Channel Cycling A.530/585hp),[4]; cycle 32,4.705
same,EtBr fluorescence (Channel Cycling A.530/585hp),[4]; cycle 33,4.739
same,EtBr fluorescence (Channel Cycling A.530/585hp),[4]; cycle 34,4.713
same,EtBr fluorescence (Channel Cycling A.530/585hp),[4]; cycle 35,4.766
same,EtBr fluorescence (Channel Cycling A.530/585hp),[4]; cycle 36,4.793
same,EtBr fluorescence (Channel Cycling A.530/585hp),[4]; cycle 37,4.818
same,EtBr fluorescence (Channel Cycling A.530/585hp),[4]; cycle 38,4.849
same,EtBr fluorescence (Channel Cycling A.530/585hp),[4]; cycle 39,4.826
same,EtBr fluorescence (Channel Cycling A.530/585hp),[4]; cycle 40,4.8647
same,EtBr fluorescence (Channel Cycling A.530/585hp),[4]; cycle 41,4.7891
same,EtBr fluorescence (Channel Cycling A.530/585hp),[4]; cycle 42,4.94
same,EtBr fluorescence (Channel Cycling A.530/585hp),[4]; cycle 43,5.003
same,EtBr fluorescence (Channel Cycling A.530/585hp),[4]; cycle 44,5
same,EtBr fluorescence (Channel Cycling A.530/585hp),[4]; cycle 45,5.002
same,EtBr fluorescence (Channel Cycling A.530/585hp),[4]; cycle 46,5.099
same,EtBr fluorescence (Channel Cycling A.530/585hp),[4]; cycle 47,5.05
same,EtBr fluorescence (Channel Cycling A.530/585hp),[4]; cycle 48,5.085
same,EtBr fluorescence (Channel Cycling A.530/585hp),[4]; cycle 49,5.044
same,EtBr fluorescence (Channel Cycling A.530/585hp),[4]; cycle 50,5.1253
same,EtBr fluorescence (Channel Cycling A.530/585hp),[4]; cycle 51,5.103
same,EtBr fluorescence (Channel Cycling A.530/585hp),[4]; cycle 52,5.071
same,EtBr fluorescence (Channel Cycling A.530/585hp),[4]; cycle 53,5.2927
same,EtBr fluorescence (Channel Cycling A.530/585hp),[4]; cycle 54,5.227
same,EtBr fluorescence (Channel Cycling A.530/585hp),[4]; cycle 55,5.134
same,EtBr fluorescence (Channel Cycling A.530/585hp),[4]; cycle 56,5.328
same,EtBr fluorescence (Channel Cycling A.530/585hp),[4]; cycle 57,5.315
same,EtBr fluorescence (Channel Cycling A.530/585hp),[4]; cycle 58,5.365
same,EtBr fluorescence (Channel Cycling A.530/585hp),[4]; cycle 59,5.339
same,EtBr fluorescence (Channel Cycling A.530/585hp),[4]; cycle 60,5.32
same,EtBr fluorescence (Channel Cycling A.530/585hp),[4]; cycle 61,5.417
same,increase in LDH release,[5],52.45%
same,"AlamarBlue fluorescence 530/25,590/35 (raw well reading)",[6]; 0.625 uM,4943 and 4771 and 4650
same,"AlamarBlue fluorescence 530/25,590/35 (raw well reading)",[6]; 1.25 uM,4755 and 4559 and 4604
same,"AlamarBlue fluorescence 530/25,590/35 (raw well reading)",[6]; 5 uM,468 and 451 and 495
same,"AlamarBlue fluorescence 530/25,590/35 (raw well reading)",[6]; 10 uM,253 and 248
same,"AlamarBlue fluorescence 530/25,590/35 (raw well reading)",[6]; 20 uM,256 and 246 and 248
same,"AlamarBlue fluorescence 530/25,590/35 (raw well reading)",[6]; 40 uM,254 and 251 and 248
same,"AlamarBlue fluorescence 530/25,590/35 (raw well reading)",[6]; 80 uM,254 and 250 and 251
same,"AlamarBlue fluorescence 530/25,590/35 (raw well reading)",[6]; 160 uM,259 and 263 and 255
same,CC10,[6]; [10],9.21 µM
same,CC90,[6]; [10],12.7 µM
same,average MIC,[7]; Gram-negative bacteria,≥ 128 µg/mL
same,average MIC,[7]; Gram-positive bacteria,50 µg/mL
same,average MIC,[7]; acid-fast bacteria,32 µg/mL
same,MIC,[8],>256 µg/mL
same,ATP levels during the first 3 h of exposure,"[9]; AG100, 320 µM (1/2 MIC) and 640 µM (MIC), same level as drug-free control",remained constant
same,ATP production less than that of the drug-free control,"[9]; AG100, half MIC (320 µM), 24 h of exposure",80%
same,ATP - luciferase:Lum,"[9]; PQQ4R MIC, T1",438 and 716
same,ATP - luciferase:Lum,"[9]; PQQ4R MIC, T2",453 and 417
same,ATP - luciferase:Lum,"[9]; PQQ4R MIC, T3",588 and 696
same,ATP - luciferase:Lum,"[9]; PQQ4R MIC, T4",454 and 413
same,ATP - luciferase:Lum,"[9]; PQQ4R MIC, T5",701 and 675
same,ATP - luciferase:Lum,"[9]; PQQ4R MIC, T6",445 and 588
same,ATP - luciferase:Lum,"[9]; PQQ4R MIC, T24",545 and 530
same,ATP - luciferase:Lum,"[9]; PQQ4R half MIC, T1",406 and 431
same,ATP - luciferase:Lum,"[9]; PQQ4R half MIC, T2",561 and 463
same,ATP - luciferase:Lum,"[9]; PQQ4R half MIC, T3",373 and 549
same,ATP - luciferase:Lum,"[9]; PQQ4R half MIC, T4",467 and 479
same,ATP - luciferase:Lum,"[9]; PQQ4R half MIC, T5",511 and 436
same,ATP - luciferase:Lum,"[9]; PQQ4R half MIC, T6",560 and 587
same,ATP - luciferase:Lum,"[9]; PQQ4R half MIC, T24",4358 and 4198
